# Reference: patent publication US6890952B2, “Cyclic substituted aminomethyl compounds and medicaments comprising these compounds” (Gruenenthal GmbH, priority 2000, dated 2005)
# Assays:
# [1] = tested on: phenylquinone-induced writhing reactions; test: phenylquinone-induced writhing test in mice; assay type: in vivo, mouse
# Method: The antinociceptive activity of the compounds according to the invention was investigated in mice in the phenylquinone-induced writhing test, modified by I. C. Hendershot, J. Forsaith, J. Pharmacol. Exp. Ther. 125, 237-240 (1959). Male NMRI mice weighing 25-30 g were employed for this. Groups of 10 animals per substance dose received 0.3 ml/mouse of a 0.02% aqueous solution of phenylquinone (phenylbenzoquinone, Sigma, Deisenhofen; preparation of the solution with the addition of 5% ethanol and storage in a water bath at 45° C.) administered intraperitoneally 10 minutes after intravenous administration of a compound according to the invention. The animals were placed individually in observation cages. The number of pain-induced stretching movements (so-called writhing reactions=straightening of the body with stretching of the hind extremities) was counted by means of a push-button counter for 5-20 minutes after the administration of phenylquinone.
# The ED50 values of the writhing reaction were calculated by means of regression analysis (evaluation program, Martens EDV Service, Eckental) from the dose-dependent decrease in writhing reactions compared with animal groups investigated in parallel to which no compound according to the invention was administered.
# The majority of the substances were tested in the standard dose of 10 mg/kg. The percentage inhibition (% inhibition) of the writhing reactions by a substance was then calculated according to the following equation: [formula] The results are summarized in table 1 for selected compounds.
# [2] = male NMRI mice, standard dose of 10 mg/kg
Compound,melting point,"Writhing test, mouse, i.v. decrease in writhing reactions (% inhibition) [1, 2] [%]",further results
CN(C)CC1=C(Cc2ccc(Cl)cc2)c2ccccc2CCC1.Cl,240 to 243 °C,–,–
CN(C)CC1=C(Cc2ccc(Cl)cc2)c2ccccc2CC1.Cl [Example 2],–,61.5,"Writhing test, mouse, i.v. ED50 ([1]; male NMRI mice, 10 minutes before phenylquinone i.p.): 6.85 mg/kg"
"CN(C)CC1=C(Cc2ccc(Cl)cc2)c2cccc(O)c2CC1.Cl [Example 4c, 5-(4-Chlorobenzyl)-6-dimethylaminomethyl-7,8-dihydro-naphth-1-ol hydrochloride]",136 to 139 °C,84,–
"CN(C)CC1=C(Cc2cccc(O)c2)c2ccccc2CC1.Cl [Example 3, 3-(2-Dimethylaminomethyl-3,4-dihydro-naphth-1-ylmethyl)-phenol hydrochloride]",–,93,–
CN(C)CC1=C(Cc2ccc(Cl)cc2)c2ccc(O)cc2CC1.Cl,110 °C (dec.),–,–
"CN(C)CC1CCOc2ccccc2/C1=C\c1ccc(Cl)cc1.Cl (racemic) [Example 7c, Z-(4RS) [5-(4-Chlorobenzylidene)-2,3,4,5-tetrahydro-benzo[b]oxepin-4-yl-methyl]-dimethylamine hydrochloride]",–,79,–
"CN(C)CC1CCOc2ccccc2/C1=C\c1cccc(O)c1.Cl (racemic) [Example 6c, Z-(4RS)3-(4-Dimethylaminomethyl-3,4-dihydro-2H-benzo[b]oxepin-5-ylidene-methyl)-phenol hydrochloride]",–,78,–
"CN(C)CC1CCOc2ccccc2/C1=C/c1cccc(O)c1.Cl (racemic) [Example 6b, E-(4RS)3-(4-Dimethylaminomethyl-3,4-dihydro-2H-benzo[b]oxepin-5-ylidene-methyl)-phenol hydrochloride]",–,–,"Writhing test, mouse, i.v. decrease in writhing reactions (% inhibition) ([1]; male NMRI mice, dose 21.5 mg/kg as printed in table 1): 91% [21.5 mg/kg]; inhibition of writhing reactions ([1]; mouse, i.v., dose of 2.15 mg/kg body weight as printed in text): 91%"
"CN(C)CC1=C(Cc2cccc(O)c2)c2ccccc2OCC1.Cl [Example 6a, 3-(4-Dimethylaminomethyl-2,3-dihydro-benzo[b]oxepin-5-ylmethyl)-phenol hydrochloride]",–,95,–
"CN(C)CC1CCCc2ccccc2/C1=C/c1ccc(Cl)cc1.Cl (racemic) [Example 4e, E-(5RS)-[5-(4-Chlorobenzylidene)-6,7,8,9-tetrahydro-5H-benzocyclohepten-6-ylmethyl]-dimethylamine hydrochloride]",–,69,–
CN(C)CC1=C(Cc2ccc(Cl)cc2Cl)c2ccccc2CC1.Cl,208 to 209 °C,–,–
